Source: ChEMBL document CHEMBL4390652, “Design, biological evaluation and X-ray crystallography of nanomolar multifunctional ligands targeting simultaneously acetylcholinesterase and glycogen synthase kinase-3” (Eur J Med Chem, 2019)

What was measured:
[1] = molecular target: Activin receptor type-1-like (Homo sapiens) (UniProt P37023); assay: Binding affinity to wild-type human ACVRL1 (L164 to Q503 residues) expressed in bacterial expression system assessed as residual binding level at 10 uM by Kinomescan method relative to control
[2] = molecular target: Mitogen-activated protein kinase kinase kinase 6 (Homo sapiens) (UniProt O95382); assay: Binding affinity to wild-type human partial length ASK2 (M278 to R972 residues) expressed in mammalian expression system assessed as residual binding level at 10 uM by Kinomescan method relative to control
[3] = molecular target: Serine/threonine-protein kinase DCLK3 (Homo sapiens) (UniProt Q9C098); assay: Binding affinity to wild-type human partial length DCAMKL3 (E140 to V628 residues) expressed in bacterial expression system assessed as residual binding level at 10 uM by Kinomescan method relative to control
[4] = test system: Epidermal growth factor receptor (Homo sapiens), P00533 [G719S]; assay: Binding affinity to human partial length EGFR G719S mutant (R669 to V1011 residues) expressed in bacterial expression system assessed as residual binding level at 10 uM by Kinomescan method relative to control
[5] = molecular target: Ephrin type-A receptor 1 (Homo sapiens) (UniProt P21709); assay: Binding affinity to wild-type human partial length EPHA1 (V588 to I913 residues) expressed in bacterial expression system assessed as residual binding level at 10 uM by Kinomescan method relative to control
[6] = molecular target: Mitogen-activated protein kinase 4 (Homo sapiens) (UniProt P31152); assay: Binding affinity to wild-type human partial length ERK4 (M1 to L365 residues) expressed in bacterial expression system assessed as residual binding level at 10 uM by Kinomescan method relative to control
[7] = test system: Receptor-type tyrosine-protein kinase FLT3 (Homo sapiens), P36888 [D835H]; assay: Binding affinity to human partial length FLT3 D835H mutant (V592 to Y969 residues) expressed in bacterial expression system assessed as residual binding level at 10 uM by Kinomescan method relative to control
[8] = molecular target: Homeodomain-interacting protein kinase 2 (Homo sapiens) (UniProt Q9H2X6); assay: Binding affinity to wild-type human partial length HIPK2 (M153 to S564 residues) expressed in mammalian expression system assessed as residual binding level at 10 uM by Kinomescan method relative to control
[9] = molecular target: Hormonally up-regulated neu tumor-associated kinase (Homo sapiens) (UniProt P57058); assay: Binding affinity to wild-type human partial length HUNK (A31 to K354 residues) expressed in bacterial expression system assessed as residual binding level at 10 uM by Kinomescan method relative to control
[10] = molecular target: Inhibitor of nuclear factor kappa-B kinase subunit epsilon (Homo sapiens) (UniProt Q14164); assay: Binding affinity to wild-type human full length IKK-epsilon (M1 to V716 residues) expressed in mammalian expression system assessed as residual binding level at 10 uM by Kinomescan method relative to control
[11] = molecular target: Mitogen-activated protein kinase 8 (Homo sapiens) (UniProt P45983); assay: Binding affinity to wild-type human full length JNK1 (M1 to Q384 residues) expressed in mammalian expression system assessed as residual binding level at 10 uM by Kinomescan method relative to control
[12] = molecular target: Tyrosine-protein kinase Lck (Homo sapiens) (UniProt P06239); assay: Binding affinity to wild-type human partial length LCK (R207 to P509 residues) expressed in bacterial expression system assessed as residual binding level at 10 uM by Kinomescan method relative to control
[13] = test system: Leucine-rich repeat serine/threonine-protein kinase 2 (Homo sapiens), Q5S007 [G2019S]; assay: Binding affinity to human partial length LRRK2 G2019S mutant (H970 to E2527 residues) expressed in mammalian expression system assessed as residual binding level at 10 uM by Kinomescan method relative to control
[14] = molecular target: Serine/threonine-protein kinase MARK1 (Homo sapiens) (UniProt Q9P0L2); assay: Binding affinity to wild-type human partial length MARK1 (Q30 to T341 residues) expressed in bacterial expression system assessed as residual binding level at 10 uM by Kinomescan method relative to control
[15] = molecular target: Dual specificity mitogen-activated protein kinase kinase 5 (Homo sapiens) (UniProt Q13163); assay: Binding affinity to wild-type human partial length MEK5 (L98 to P448 residues) expressed in mammalian expression system assessed as residual binding level at 10 uM by Kinomescan method relative to control
[16] = molecular target: Hepatocyte growth factor receptor (Homo sapiens) (UniProt P08581); assay: Binding affinity to wild-type human partial length MET (D1010 to S1367 residues) expressed in bacterial expression system assessed as residual binding level at 10 uM by Kinomescan method relative to control
[17] = molecular target: 3-phosphoinositide-dependent protein kinase 1 (Homo sapiens) (UniProt O15530); assay: Binding affinity to wild-type human full length PDPK1 (M1 to Q556 residues) expressed in bacterial expression system assessed as residual binding level at 10 uM by Kinomescan method relative to control
[18] = molecular target: Cyclin-dependent kinase 14 (Homo sapiens) (UniProt O94921); assay: Binding affinity to wild-type human full length PFTK1 (M1 to H451 residues) expressed in bacterial expression system assessed as residual binding level at 10 uM by Kinomescan method relative to control
[19] = molecular target: Serine/threonine-protein kinase N2 (Homo sapiens) (UniProt Q16513); assay: Binding affinity to wild-type human partial length PKN2 (E634 to C984 residues) expressed in bacterial expression system assessed as residual binding level at 10 uM by Kinomescan method relative to control
[20] = molecular target: Protein kinase C delta type (Homo sapiens) (UniProt Q05655); assay: Binding affinity to wild-type human partial length PRKCD (Q328 to D676 residues) expressed in bacterial expression system assessed as residual binding level at 10 uM by Kinomescan method relative to control
[21] = molecular target: Serine/threonine-protein kinase PRP4 homolog (Homo sapiens) (UniProt Q13523); assay: Binding affinity to wild-type human partial length PRP4 (D657 to I1007 residues) expressed in bacterial expression system assessed as residual binding level at 10 uM by Kinomescan method relative to control
[22] = molecular target: Rho-associated protein kinase 1 (Homo sapiens) (UniProt Q13464); assay: Binding affinity to wild-type human partial length ROCK1 (M1 to R415 residues) expressed in mammalian expression system assessed as residual binding level at 10 uM by Kinomescan method relative to control
[23] = molecular target: Ribosomal protein S6 kinase alpha-6 (Homo sapiens) (UniProt Q9UK32); assay: Binding affinity to wild-type human partial length N-terminal RSK4 kinase domain 1 (M1 to E397 residues) expressed in mammalian expression system assessed as residual binding level at 10 uM by Kinomescan method relative to control
[24] = molecular target: STE20/SPS1-related proline-alanine-rich protein kinase (Homo sapiens) (UniProt Q9UEW8); assay: Binding affinity to wild-type human partial length STK39 (P43 to I357 residues) expressed in mammalian expression system assessed as residual binding level at 10 uM by Kinomescan method relative to control
MDR1 = assay: in vitro; conditions: dog, MDCK-MDR1
Description: Apparent permeability across apical to basolateral side in MDCK2-MDR1 cells by HPLC analysis

Chain of Serine/threonine-protein kinase MARK1 (Homo sapiens) (Q9P0L2 whole entry, looked up, the tested form may be a part): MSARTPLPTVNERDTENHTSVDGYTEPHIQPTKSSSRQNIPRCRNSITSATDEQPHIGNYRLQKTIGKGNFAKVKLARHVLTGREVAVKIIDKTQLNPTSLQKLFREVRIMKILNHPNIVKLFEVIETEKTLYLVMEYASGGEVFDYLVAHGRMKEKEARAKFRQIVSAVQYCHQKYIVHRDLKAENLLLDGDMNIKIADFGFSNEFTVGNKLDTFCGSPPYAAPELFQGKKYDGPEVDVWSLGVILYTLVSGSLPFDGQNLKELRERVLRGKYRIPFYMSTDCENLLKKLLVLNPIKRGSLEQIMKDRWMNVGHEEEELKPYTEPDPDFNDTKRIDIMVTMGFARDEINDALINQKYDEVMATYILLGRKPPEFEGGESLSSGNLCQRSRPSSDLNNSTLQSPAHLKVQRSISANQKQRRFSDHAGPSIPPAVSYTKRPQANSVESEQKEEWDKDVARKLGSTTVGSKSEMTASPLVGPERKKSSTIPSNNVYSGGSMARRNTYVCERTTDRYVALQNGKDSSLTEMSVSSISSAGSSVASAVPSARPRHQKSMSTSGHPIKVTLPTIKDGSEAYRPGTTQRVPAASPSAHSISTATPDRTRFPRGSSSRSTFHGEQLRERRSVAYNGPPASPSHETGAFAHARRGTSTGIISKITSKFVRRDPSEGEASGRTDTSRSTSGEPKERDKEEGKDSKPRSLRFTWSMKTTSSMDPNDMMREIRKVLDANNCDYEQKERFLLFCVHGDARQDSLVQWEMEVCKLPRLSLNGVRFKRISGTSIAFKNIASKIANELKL
Chain of Ribosomal protein S6 kinase alpha-6 (Homo sapiens) (Q9UK32 whole entry, the tested form may be a part): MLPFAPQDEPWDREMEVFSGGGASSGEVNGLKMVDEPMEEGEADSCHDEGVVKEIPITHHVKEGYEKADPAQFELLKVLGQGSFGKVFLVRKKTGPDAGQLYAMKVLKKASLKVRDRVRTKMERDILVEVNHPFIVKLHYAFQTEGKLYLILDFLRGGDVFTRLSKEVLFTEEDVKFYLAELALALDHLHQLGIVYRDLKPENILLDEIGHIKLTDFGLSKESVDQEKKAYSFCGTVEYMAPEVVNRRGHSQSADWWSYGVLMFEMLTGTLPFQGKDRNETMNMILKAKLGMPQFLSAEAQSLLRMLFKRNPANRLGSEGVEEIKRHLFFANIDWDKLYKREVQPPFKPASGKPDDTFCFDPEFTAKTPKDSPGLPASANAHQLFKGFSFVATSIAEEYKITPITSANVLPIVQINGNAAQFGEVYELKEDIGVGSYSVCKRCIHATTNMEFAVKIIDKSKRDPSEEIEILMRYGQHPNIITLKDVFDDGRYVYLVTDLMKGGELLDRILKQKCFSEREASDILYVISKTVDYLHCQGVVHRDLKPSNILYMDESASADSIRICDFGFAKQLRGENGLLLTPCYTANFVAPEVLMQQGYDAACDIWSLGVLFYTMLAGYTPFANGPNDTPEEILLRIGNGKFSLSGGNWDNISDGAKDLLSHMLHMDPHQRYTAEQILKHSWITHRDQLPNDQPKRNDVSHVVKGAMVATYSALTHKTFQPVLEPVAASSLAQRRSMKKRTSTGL
Chain of Leucine-rich repeat serine/threonine-protein kinase 2 (Homo sapiens), Q5S007 [G2019S] (Q5S007 whole entry G2019S, the tested form may be a part): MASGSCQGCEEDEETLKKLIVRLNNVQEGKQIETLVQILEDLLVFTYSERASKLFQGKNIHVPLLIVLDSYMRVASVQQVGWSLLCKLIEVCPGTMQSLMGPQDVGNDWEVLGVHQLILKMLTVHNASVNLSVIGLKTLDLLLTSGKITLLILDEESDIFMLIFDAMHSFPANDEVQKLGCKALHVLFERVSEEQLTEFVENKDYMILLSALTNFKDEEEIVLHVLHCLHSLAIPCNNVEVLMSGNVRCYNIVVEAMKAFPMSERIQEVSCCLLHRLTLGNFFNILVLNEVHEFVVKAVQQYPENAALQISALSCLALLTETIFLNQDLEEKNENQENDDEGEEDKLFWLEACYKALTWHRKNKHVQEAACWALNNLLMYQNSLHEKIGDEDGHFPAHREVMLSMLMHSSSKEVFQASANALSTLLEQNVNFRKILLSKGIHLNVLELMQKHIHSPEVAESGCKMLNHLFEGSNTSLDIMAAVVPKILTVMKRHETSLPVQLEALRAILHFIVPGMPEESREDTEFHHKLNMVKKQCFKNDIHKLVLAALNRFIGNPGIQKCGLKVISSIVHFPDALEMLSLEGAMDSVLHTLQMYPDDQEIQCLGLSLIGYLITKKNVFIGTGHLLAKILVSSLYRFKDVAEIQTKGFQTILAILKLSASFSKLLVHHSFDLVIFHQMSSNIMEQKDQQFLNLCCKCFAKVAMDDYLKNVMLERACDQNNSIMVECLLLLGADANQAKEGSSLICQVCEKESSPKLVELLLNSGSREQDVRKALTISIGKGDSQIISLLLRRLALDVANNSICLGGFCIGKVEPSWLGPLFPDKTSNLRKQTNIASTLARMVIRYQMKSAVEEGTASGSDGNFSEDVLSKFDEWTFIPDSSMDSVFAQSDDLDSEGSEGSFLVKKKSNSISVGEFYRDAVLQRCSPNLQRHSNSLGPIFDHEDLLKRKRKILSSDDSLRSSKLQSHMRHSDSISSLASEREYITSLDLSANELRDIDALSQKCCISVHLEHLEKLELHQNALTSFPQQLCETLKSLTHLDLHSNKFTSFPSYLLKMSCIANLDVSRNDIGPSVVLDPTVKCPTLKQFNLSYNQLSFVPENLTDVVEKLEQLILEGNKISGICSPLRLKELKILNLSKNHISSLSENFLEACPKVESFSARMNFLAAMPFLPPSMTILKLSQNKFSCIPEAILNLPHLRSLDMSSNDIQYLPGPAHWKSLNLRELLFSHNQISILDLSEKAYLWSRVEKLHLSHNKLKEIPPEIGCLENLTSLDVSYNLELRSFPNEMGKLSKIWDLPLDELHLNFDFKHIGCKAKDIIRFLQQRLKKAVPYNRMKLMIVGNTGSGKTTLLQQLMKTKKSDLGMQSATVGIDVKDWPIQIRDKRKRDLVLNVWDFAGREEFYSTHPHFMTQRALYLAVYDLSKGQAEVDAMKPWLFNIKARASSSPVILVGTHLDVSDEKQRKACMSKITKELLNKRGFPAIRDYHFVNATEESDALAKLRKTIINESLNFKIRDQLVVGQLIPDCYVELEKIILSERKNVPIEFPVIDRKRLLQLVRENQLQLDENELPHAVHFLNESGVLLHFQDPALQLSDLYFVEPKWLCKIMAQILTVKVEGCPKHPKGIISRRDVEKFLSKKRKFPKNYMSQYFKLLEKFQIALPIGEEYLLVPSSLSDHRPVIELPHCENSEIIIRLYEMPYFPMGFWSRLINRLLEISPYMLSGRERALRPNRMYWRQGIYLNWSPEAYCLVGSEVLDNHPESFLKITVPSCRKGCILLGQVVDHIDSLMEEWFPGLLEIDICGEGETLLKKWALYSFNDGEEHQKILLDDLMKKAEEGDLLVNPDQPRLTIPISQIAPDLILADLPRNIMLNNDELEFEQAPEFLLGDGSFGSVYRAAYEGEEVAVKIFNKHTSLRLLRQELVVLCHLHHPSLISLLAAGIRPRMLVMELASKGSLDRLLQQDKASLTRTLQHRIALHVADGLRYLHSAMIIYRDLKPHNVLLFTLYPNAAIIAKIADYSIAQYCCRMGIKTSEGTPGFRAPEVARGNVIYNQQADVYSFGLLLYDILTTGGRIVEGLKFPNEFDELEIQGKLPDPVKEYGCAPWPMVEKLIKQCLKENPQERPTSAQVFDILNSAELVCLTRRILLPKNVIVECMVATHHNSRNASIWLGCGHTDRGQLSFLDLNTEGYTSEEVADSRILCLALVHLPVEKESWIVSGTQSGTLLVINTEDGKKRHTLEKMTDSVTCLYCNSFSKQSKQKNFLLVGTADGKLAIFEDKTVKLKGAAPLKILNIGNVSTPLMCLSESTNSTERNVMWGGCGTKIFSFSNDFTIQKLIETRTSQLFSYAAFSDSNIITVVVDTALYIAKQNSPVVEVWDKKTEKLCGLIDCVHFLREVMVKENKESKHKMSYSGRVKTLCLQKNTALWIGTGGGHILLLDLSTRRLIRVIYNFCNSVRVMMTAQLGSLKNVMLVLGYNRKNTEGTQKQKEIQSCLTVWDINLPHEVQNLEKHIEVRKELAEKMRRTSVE
Chain of Dual specificity mitogen-activated protein kinase kinase 5 (Homo sapiens) (Q13163 whole entry, the tested form may be a part): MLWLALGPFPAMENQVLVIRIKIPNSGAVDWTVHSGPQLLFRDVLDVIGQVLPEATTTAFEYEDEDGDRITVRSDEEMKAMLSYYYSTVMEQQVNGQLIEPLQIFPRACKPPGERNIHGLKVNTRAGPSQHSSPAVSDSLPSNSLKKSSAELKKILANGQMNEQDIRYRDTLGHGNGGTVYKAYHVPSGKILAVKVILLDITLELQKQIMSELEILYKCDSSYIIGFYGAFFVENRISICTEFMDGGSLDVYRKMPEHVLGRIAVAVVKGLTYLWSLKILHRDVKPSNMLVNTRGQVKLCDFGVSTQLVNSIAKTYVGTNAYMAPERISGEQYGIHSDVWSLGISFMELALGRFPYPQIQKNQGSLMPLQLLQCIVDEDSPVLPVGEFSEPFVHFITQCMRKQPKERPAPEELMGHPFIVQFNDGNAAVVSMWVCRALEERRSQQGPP
Chain of Cyclin-dependent kinase 14 (Homo sapiens) (O94921 whole entry, the tested form may be a part): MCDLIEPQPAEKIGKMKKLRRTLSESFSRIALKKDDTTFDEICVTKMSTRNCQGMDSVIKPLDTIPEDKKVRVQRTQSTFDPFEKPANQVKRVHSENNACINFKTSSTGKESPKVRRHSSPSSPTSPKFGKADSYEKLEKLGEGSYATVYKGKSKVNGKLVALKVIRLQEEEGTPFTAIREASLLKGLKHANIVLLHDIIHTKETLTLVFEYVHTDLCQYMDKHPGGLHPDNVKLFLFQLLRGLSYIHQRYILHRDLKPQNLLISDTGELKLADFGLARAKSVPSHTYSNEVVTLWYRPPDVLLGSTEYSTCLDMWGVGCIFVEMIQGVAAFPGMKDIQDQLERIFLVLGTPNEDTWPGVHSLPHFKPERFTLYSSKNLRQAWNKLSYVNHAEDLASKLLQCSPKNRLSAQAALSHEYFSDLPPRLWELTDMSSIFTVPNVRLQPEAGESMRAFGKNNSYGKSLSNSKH

O=C(Nc1cc(-c2cn(CCNc3c4c(nc5ccccc35)CCCC4)nn2)ccn1)Nc1cccc2c1C1CCCCN1C2=O (racemic)
Activity [1]: 100%
Activity [2]: 87%
Activity [3]: 33%
Activity [4]: 94%
Activity [5]: 60%
Activity [6]: 4.7%
Activity [7]: 3.4%
Activity [8]: 49%
Activity [9]: 100%
Activity [10]: 52%
Activity [11]: 0.55%
Activity [12]: 23%
Activity [13]: 24%
Activity [14]: 50%
Activity [15]: 1.6%
Activity [16]: 57%
Activity [17]: 41%
Activity [18]: 28%
Activity [19]: 4.8%
Activity [20]: 7.3%
Activity [21]: 15%
Activity [22]: 36%
Activity [23]: 2.2%
Activity [24]: 100%
Papp A→B (MDR1): 11.1 ×10⁻⁶ cm/s
